Results as given in patent publication US4540689A, “Penicillin derivative” (Kureha Kagaku Kogyo Kabushiki Kaisha, priority 1981, dated 1985).
In brackets after ≈: the same amount, converted by molar mass.

What was measured:
Escherichia coli = test: Effect on intestinal bacterial colonies, E. coli count in feces; format: in vivo; conditions: female ICR mice, oral 500 mg/kg/day for two days, first day after administration; before administration 6.4
Protocol: (§1) Effect of the present compounds on the intestinal bacterial colonies was examined.
(§2) Each of the present compounds was orally administered to mice (one group consisting of five female ICR mice of 6-week-old) for two consecutive days at a dose of 500 mg/kg/day.
(§3) Before and on the first day after the administration, feces of each mouse was collected and diluted with an anerobic diluent (phosphoric buffer solution) of 100 times volume and ground. 0.1 ml of the diluted and ground feces was smeared on each culture medium shown in Table 1 and cultured aerobically or anaerobically (according to the anaerobic glove box method) under each condition shown in Table 1.
DHL agar aerobic, 37° C., one day

Pseudomonas aeruginosa = test: Effect on intestinal bacterial colonies, Ps. aeruginosa count in feces; format: in vivo; conditions: female ICR mice, oral 500 mg/kg/day for two days, first day after administration; before administration <3.0
Protocol: as §1, §2, §3
NAC agar aerobic, 37° C., one day

Streptococcus spp. = test: Effect on intestinal bacterial colonies, Streptococcus count in feces; format: in vivo; conditions: female ICR mice, oral 500 mg/kg/day for two days, first day after administration; before administration 6.8
Protocol: as §1, §2, §3
TATAC agar aerobic, 37° C., one day

[1] = test system: Lactobacillus acidophilus; test: Effect on intestinal bacterial colonies, L. acidophilus count in feces; format: in vivo; conditions: female ICR mice, oral 500 mg/kg/day for two days, first day after administration; before administration 9.0
Protocol: as §1, §2, §3
Lactobacillus acidophilus
LBS agar anaerobic, 37° C., five

Lactobacillus bifidus = test: Effect on intestinal bacterial colonies, L. bifidus count in feces; format: in vivo; conditions: female ICR mice, oral 500 mg/kg/day for two days, first day after administration; before administration 8.4
Protocol: as §1, §2, §3
BS agar anaerobic, 37° C., five

Bacteroides = test: Effect on intestinal bacterial colonies, Bacteroides count in feces; format: in vivo; conditions: female ICR mice, oral 500 mg/kg/day for two days, first day after administration; before administration 8.3
Protocol: as §1, §2, §3
Bacteroides NBGT agar anaerobic, 37° C., five

[2] = test system: Escherichia coli IFO 12734; test: Antibacterial activity (MIC), agar plate, E. coli; format: cell-based; conditions: E. coli IFO 12734, Mueller-Hinton agar, 37° C., 18 to 24 hours; unit assumed
Protocol: (§4) Antibacterial activity of the present compounds was examined as follows.
(§5) Antibacterial activity of each of the present compounds was examined against the following two bacteria according to the standard method of Japan Society of Chemotherapy:
Escherichia coli IFO 12734 and
(§6) Each bacterial strain was inoculated into the Mueller-Hinton's culture medium and cultured at 37° C. for 18 to 48 hours. The culture medium was diluted so as to contain 1×10^6 cells of the bacteria per one ml, and the obtained medium was used as the bacterial specimen.
(§7) Agar plates were prepared by adding one part by weight of each solution of the present compounds having a predetermined concentration to nine parts by weight of Mueller-Hinton's culture medium.
(§8) A loopful amount of the bacterial specimen prepared above was smeared to make a streak of about 2 cm on each agar plate and cultured at 37° C. for 18 to 24 hours. The minimum concentration for completely inhibiting proliferation of the bacteria (referred as MIC) was determined.

[3] = test system: Staphylococcus aureus IAM 1011; test: Antibacterial activity (MIC), agar plate, Staph. aureus; format: cell-based; conditions: Staph. aureus IAM 1011, Mueller-Hinton agar, 37° C., 18 to 24 hours; unit assumed
Protocol: as §4, §5
Staphylococcus aureus IAM 1011
as §6, §7, §8

[4] = test system: Staphylococcus aureus IAM 1011; test: Activation by rat liver homogenate (S-9 mix), penicillin cup proliferation-inhibiting circle; format: cell-based; conditions: compound solution 100 μg/ml, ratio of circle diameter to conventional penicillin antibiotic; for Proliferation-inhibiting index (%), after adding S-9 mix: incubated with S-9 mix 37° C., 20 min; for Proliferation-inhibiting index (%), before adding S-9 mix: phosphoric buffer control without S-9
Protocol: As an enzyme for activating metabolism, a rat liver homogenate (S-9, manufactured by Oriental Yeast Company, Japan) was used in the following composition per one ml (hereinafter referred to as S-9 mix).
0.1 ml of each solution of the present compounds at a concentration of 100 μg/ml was mixed with 0.9 ml of S-9 mix or 0.9 ml of 0.1M phosphoric buffer solution (as a control) and the obtained mixture was incubated at 37° C. for 20 min with shaking.
Staphylococcus aureus IAM 1011 was inoculated into a Mueller-Hinton's culture medium and cultured at 37° C. for 18 hours. The culture medium was adjusted to a cell concentration of 1×10^8 per one ml and mixed with 50 times by volume of Mueller-Hinton's agar culture medium to obtain an agar plate.
A penicillin cup of 8 mm in diameter was placed on the agar plate prepared above, and into the cup 0.1 ml of the mixture was introduced and allowed to stand at 4° C. for 2 hours and then cultured at 37° C. for 18 hours to measure the diameter of a circle in which the proliferation of bacteria was inhibited (proliferation-inhibiting circle). In Table 4, the proliferation-inhibitingindex is shown with the ratio (%) of the diameter of the proliferation-inhibiting circle obtained by using each of the present compounds to that obtained by using the comparative compound (conventionalpenicillin antibiotic).

Row | SMILES | MIC, E. coli [2] [µg/mL] | MIC, Staph. aureus [3] [µg/mL] | Logarithmic value of the number of bacterial cells per one gram of feces, E. coli (Escherichia coli) | Logarithmic value of the number of bacterial cells per one gram of feces, Ps. aeruginosa (Pseudomonas aeruginosa) | Logarithmic value of the number of bacterial cells per one gram of feces, Strept. spp. (Streptococcus spp.) | Logarithmic value of the number of bacterial cells per one gram of feces, L. acidophilus [1] | Logarithmic value of the number of bacterial cells per one gram of feces, L. bifidus (Lactobacillus bifidus) | Logarithmic value of the number of bacterial cells per one gram of feces, Bacteroides (Bacteroides) | Proliferation-inhibiting index (%), after adding S-9 mix [4] | Proliferation-inhibiting index (%), before adding S-9 mix [4]
1 | CC(=O)Nc1ccc(C(=O)NCC(=O)N[C@@H](C(=O)N[C@@H]2C(=O)N3[C@@H]2SC(C)(C)[C@@H]3C(=O)O)c2ccccc2)cc1 [Example 8, 7-[N-(p-acetylaminohippuric acid amido)-O-phenylglycineamido]penicillanic acid] | ≥ 100 | ≥ 12.5 | 6.4 logarithmic value; cells per o | < 3.0 logarithmic value; cells per o | 6.7 logarithmic value; cells per o | 9.2 logarithmic value; cells per o | 8.5 logarithmic value; cells per o | 8.1 logarithmic value; cells per o | – | –
2 | CC(=O)OC[C@H]1OC(OC(=O)[C@@H]2N3C(=O)[C@@H](NC(=O)COc4ccccc4)[C@H]3SC2(C)C)[C@H](OC(C)=O)[C@@H](OC(C)=O)[C@@H]1OC(C)=O (stereo partly drawn) [Example 1] | ≥ 200 | 0.39 (≈ 0.573 µM) | 7.2 logarithmic value; cells per o | < 3.0 logarithmic value; cells per o | 6.8 logarithmic value; cells per o | 9.1 logarithmic value; cells per o | 8.6 logarithmic value; cells per o | 8.5 logarithmic value; cells per o | ± (0-1) | - (0)
3 | CCOCOC(=O)[C@@H]1N2C(=O)[C@@H](NC(=O)COc3ccccc3)[C@H]2SC1(C)C [Example 10] | ≥ 25 | 12.5 (≈ 30.6 µM) | 6.4 logarithmic value; cells per o | < 3.0 logarithmic value; cells per o | 6.6 logarithmic value; cells per o | 9.0 logarithmic value; cells per o | 8.4 logarithmic value; cells per o | 8.2 logarithmic value; cells per o | – | –
4 | Cc1ncc(CO)c(C=NC(C(=O)N[C@@H]2C(=O)N3[C@@H]2SC(C)(C)[C@@H]3C(=O)O)c2ccccc2)c1O (stereo partly drawn) [Example 6] | ≥ 100 | ≥ 12.5 | – | – | – | – | – | – | +++ (66-100) | ++ (33-66)

The next lines start with results.

Row | MIC, E. coli [2] [µg/mL] | MIC, Staph. aureus [3] [µg/mL] | SMILES | Logarithmic value of the number of bacterial cells per one gram of feces, E. coli (Escherichia coli) | Logarithmic value of the number of bacterial cells per one gram of feces, Ps. aeruginosa (Pseudomonas aeruginosa) | Logarithmic value of the number of bacterial cells per one gram of feces, Strept. spp. (Streptococcus spp.) | Logarithmic value of the number of bacterial cells per one gram of feces, L. acidophilus [1] | Logarithmic value of the number of bacterial cells per one gram of feces, L. bifidus (Lactobacillus bifidus) | Logarithmic value of the number of bacterial cells per one gram of feces, Bacteroides (Bacteroides) | Proliferation-inhibiting index (%), after adding S-9 mix [4] | Proliferation-inhibiting index (%), before adding S-9 mix [4]
5 | 12.5 | 0.78 | CC1(C)S[C@@H]2[C@H](NC(=O)C(N=Cc3ccccc3O)c3ccccc3)C(=O)N2[C@H]1C(=O)O (stereo partly drawn) [Example 4, sodium 6-(salicylaldehydeiminophenylglycino)penicillanate] | 6.4 logarithmic value; cells per o | < 3.0 logarithmic value; cells per o | 6.5 logarithmic value; cells per o | 8.8 logarithmic value; cells per o | 8.8 logarithmic value; cells per o | 8.2 logarithmic value; cells per o | +++ (66-100) | ++ (33-66)
6 | ≥ 25 | 12.5 (≈ 31.7 µM) | COCOC(=O)[C@@H]1N2C(=O)[C@@H](NC(=O)COc3ccccc3)[C@H]2SC1(C)C [Example 9] | 6.5 logarithmic value; cells per o | 3.2 logarithmic value; cells per o | 7.0 logarithmic value; cells per o | 9.5 logarithmic value; cells per o | 8.5 logarithmic value; cells per o | 8.1 logarithmic value; cells per o | ++ (33-66) | + (1-33)
7 | ≥ 100 | ≥ 12.5 | CC(=O)Nc1ccc(C(=O)N[C@@H](C(=O)N[C@@H]2C(=O)N3[C@@H]2SC(C)(C)[C@@H]3C(=O)O)c2ccccc2)cc1 [Example 7, 7-[N-(p-acetylaminobenzoicamido)-D-phenylglycineamido]penicillanic acid] | 6.5 logarithmic value; cells per o | < 3.0 logarithmic value; cells per o | 6.4 logarithmic value; cells per o | 9.0 logarithmic value; cells per o | 8.2 logarithmic value; cells per o | 8.0 logarithmic value; cells per o | – | –
8 | 12.5 (≈ 25.1 µM) | 0.78 (≈ 1.56 µM) | CC1(C)S[C@@H]2[C@H](NC(=O)C(N=Cc3cc([N+](=O)[O-])ccc3O)c3ccccc3)C(=O)N2[C@H]1C(=O)O (stereo partly drawn) [Example 3] | 6.5 logarithmic value; cells per o | < 3.0 logarithmic value; cells per o | 6.8 logarithmic value; cells per o | 9.1 logarithmic value; cells per o | 8.4 logarithmic value; cells per o | 8.2 logarithmic value; cells per o | +++ (66-100) | ++ (33-66)
9 | 6.25 | 0.1 | CC1(C)S[C@@H]2[C@H](NC(=O)C(N=Cc3cc(Cl)ccc3O)c3ccccc3)C(=O)N2[C@H]1C(=O)O (stereo partly drawn) [Example 5, sodium 6-(5-chlorosalicylaldehydeiminophenylglycino)penicillanate] | 6.5 logarithmic value; cells per o | 3.3 logarithmic value; cells per o | 6.6 logarithmic value; cells per o | 8.8 logarithmic value; cells per o | 8.7 logarithmic value; cells per o | 8.0 logarithmic value; cells per o | +++ (66-100) | ++ (33-66)
